Data as given in ChEMBL document CHEMBL5032490, “Neuroactive Type-A γ-Aminobutyric Acid Receptor Allosteric Modulator Steroids from the Hypobranchial Gland of Marine Mollusk, Conus geographus” (J Med Chem, 2021).
Calls of active or inactive are those of the source. No cut-off for these calls is given here.

Key:
[1] = Reduction of ATP and Kcl-induced increase in cytosolic Ca2+ ion concentration mouse […] assessed as neuron population at 10 uM measured after 1 hr by Fura2AM dye based fluorescence microscopic analysis; format: functional; parameters: scale not given: the % may be the effect or the level left
[2] = Induction of cytosolic calcium ion concentration in mouse microglia cells at 10 uM measured after 1 hr by Fura2AM dye based fluorescence microscopic analysis; format: functional
[3] = target: T1, GABA-A receptor; alpha-1/beta-3/gamma-2 (Homo sapiens, UniProt P14867+P18507+P28472); test: Negative allosteric modulation activity at human GABAA alpha1beta3gamma2 stably expressed in HEK cells by whole cell patch clamp method; format: cell-based
T1 sequence (P14867 whole entry): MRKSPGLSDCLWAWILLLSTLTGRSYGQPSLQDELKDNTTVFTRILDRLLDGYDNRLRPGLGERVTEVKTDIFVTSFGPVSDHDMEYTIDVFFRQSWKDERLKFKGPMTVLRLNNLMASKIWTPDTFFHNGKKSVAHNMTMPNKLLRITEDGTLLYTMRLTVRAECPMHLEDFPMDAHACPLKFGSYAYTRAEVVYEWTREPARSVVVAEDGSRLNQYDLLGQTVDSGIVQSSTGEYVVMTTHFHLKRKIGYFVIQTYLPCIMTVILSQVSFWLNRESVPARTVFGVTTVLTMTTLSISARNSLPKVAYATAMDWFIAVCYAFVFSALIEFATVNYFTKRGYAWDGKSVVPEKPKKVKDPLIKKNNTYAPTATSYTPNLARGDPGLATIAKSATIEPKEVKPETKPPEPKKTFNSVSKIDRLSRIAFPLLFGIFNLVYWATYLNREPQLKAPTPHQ
T1 sequence (P18507 whole entry): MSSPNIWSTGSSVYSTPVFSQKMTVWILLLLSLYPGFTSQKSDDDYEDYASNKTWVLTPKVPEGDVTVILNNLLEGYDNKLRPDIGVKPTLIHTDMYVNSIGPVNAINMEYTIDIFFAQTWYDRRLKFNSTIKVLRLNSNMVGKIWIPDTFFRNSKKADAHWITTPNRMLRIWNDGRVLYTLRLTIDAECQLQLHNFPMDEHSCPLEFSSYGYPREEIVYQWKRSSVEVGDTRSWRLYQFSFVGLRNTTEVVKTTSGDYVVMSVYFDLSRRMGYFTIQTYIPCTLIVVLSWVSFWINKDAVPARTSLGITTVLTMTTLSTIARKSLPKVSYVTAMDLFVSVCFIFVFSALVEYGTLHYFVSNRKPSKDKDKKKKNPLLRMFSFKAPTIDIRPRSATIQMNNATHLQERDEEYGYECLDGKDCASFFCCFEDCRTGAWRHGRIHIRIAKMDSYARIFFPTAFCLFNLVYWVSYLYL
T1 sequence (P28472 whole entry): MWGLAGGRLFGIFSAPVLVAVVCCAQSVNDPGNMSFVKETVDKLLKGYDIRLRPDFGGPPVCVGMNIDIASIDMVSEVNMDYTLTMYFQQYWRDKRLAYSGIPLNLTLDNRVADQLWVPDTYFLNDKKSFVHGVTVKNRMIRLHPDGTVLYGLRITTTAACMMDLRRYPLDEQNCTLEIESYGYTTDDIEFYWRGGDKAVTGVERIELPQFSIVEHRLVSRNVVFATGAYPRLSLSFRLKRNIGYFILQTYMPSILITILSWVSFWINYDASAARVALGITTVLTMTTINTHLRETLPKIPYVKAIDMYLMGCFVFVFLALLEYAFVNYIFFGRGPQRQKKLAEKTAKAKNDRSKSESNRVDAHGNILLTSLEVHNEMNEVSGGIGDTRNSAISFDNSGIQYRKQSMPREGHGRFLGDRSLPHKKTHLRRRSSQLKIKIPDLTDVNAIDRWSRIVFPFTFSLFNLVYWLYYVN

[4] = target: T2, GABA-A receptor; alpha-3/beta-3/gamma-2 (Homo sapiens, UniProt P18507+P28472+P34903); test: Negative allosteric modulation activity at human GABAA alpha3beta3gamma2 stably expressed in HEK cells by whole cell patch clamp method; format: cell-based
T2 sequence (P18507 whole entry): T1 sequence (P18507 whole entry)
T2 sequence (P28472 whole entry): T1 sequence (P28472 whole entry)
T2 sequence (P34903 whole entry): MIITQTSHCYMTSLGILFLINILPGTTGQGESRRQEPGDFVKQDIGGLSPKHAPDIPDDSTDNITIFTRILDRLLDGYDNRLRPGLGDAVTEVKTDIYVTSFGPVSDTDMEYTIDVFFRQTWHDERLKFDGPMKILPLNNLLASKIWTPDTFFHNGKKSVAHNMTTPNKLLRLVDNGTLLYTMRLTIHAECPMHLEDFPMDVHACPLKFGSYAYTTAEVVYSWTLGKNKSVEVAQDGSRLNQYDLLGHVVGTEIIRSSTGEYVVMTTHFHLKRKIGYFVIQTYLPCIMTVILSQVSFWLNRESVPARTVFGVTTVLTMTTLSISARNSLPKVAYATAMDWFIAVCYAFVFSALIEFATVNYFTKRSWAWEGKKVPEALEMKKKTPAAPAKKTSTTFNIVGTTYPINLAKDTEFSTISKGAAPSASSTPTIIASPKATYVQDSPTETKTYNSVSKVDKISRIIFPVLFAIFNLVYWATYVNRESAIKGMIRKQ

[5] = target: T3, GABA-A receptor; alpha-5/beta-3/gamma-2 (Homo sapiens, UniProt P18507+P28472+P31644); test: Negative allosteric modulation activity at human GABAA alpha5beta3gamma2 stably expressed in HEK cells by patch clamp method; format: cell-based
T3 sequence (P18507 whole entry): T1 sequence (P18507 whole entry)
T3 sequence (P28472 whole entry): T1 sequence (P28472 whole entry)
T3 sequence (P31644 whole entry): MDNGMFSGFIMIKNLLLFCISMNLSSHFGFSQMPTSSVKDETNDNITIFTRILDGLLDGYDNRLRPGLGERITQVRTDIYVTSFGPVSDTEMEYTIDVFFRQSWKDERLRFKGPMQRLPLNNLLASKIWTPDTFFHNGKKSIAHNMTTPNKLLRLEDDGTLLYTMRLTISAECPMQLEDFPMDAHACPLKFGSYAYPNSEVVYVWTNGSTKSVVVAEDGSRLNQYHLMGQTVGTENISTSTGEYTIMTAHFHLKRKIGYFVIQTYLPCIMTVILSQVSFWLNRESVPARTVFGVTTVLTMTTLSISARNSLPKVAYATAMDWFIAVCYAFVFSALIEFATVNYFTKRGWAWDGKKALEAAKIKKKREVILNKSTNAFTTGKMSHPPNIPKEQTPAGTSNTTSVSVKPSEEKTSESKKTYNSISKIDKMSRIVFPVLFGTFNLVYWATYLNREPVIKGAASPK

[6] = tested on: Neuron; test: Negative allosteric modulation of mouse GABA receptor in mouse peptidergic nociceptive DRG neurons assessed as inhibition of KCl-induced response at 10 uM; format: tissue-based; settings: filed as negative allosteric modulator
[7] = tested on: Neuron; test: Negative allosteric modulation of mouse GABA receptor in mouse non-peptidergic nociceptive DRG neurons assessed as inhibition of KCl-induced response at 10 uM; format: tissue-based; settings: filed as negative allosteric modulator
[8] = tested on: Mus musculus; test: Antinociception activity in mouse model assessed as reduction in thermal hypersensitivity at 2 to 50 mg/kg, ip by hot plate test; format: functional, organism-based; settings: dose 2-50 mg/kg
[9] = Induction of ATP and Kcl-induced increase in cytosolic Ca2+ ion concentration mouse DRG other neuron subtype assessed as neuron population at 10 uM measured after 1 hr by Fura2AM dye based fluorescence microscopic analysis; format: functional
[10] = tested on: Neuron; test: Negative allosteric modulation of mouse GABA receptor in mouse DRG neurons assessed as inhibition of KCl-induced response at 10 uM using cold thermosensors; format: tissue-based; settings: filed as negative allosteric modulator

Compound `CC(C)CCC[C@@H](C)[C@H]1CC[C@H]2[C@@H]3C(=O)C=C4C=CCC[C@]4(C)[C@H]3CC[C@]12C` has an Activity [1] of 14%, an Activity [2] of 7% and an IC50 [3] of 21 µM. For the same compound, the IC50 [4] was 5.5 µM, the IC50 [5] was 19.4 µM and the Activity [6] was “Active”. The Activity [7] was “Active”, the Activity [8] was “Active” and the Activity [9] was 7%. For the same compound, the Activity [10] was “Active”.
